Data as given in patent US7772241B2, “Variolin derivatives and their use as antitumor agents” (Pharma Mar S.A., priority 2001, dated 2010).
Like-named read-outs stand apart in the source and are kept apart here.

Assays:
[1] = system: K-562; assay: Inhibition of cells growth by colorimetric (SRB) assay, K-562; conditions: for GI50 / CC50: Homo sapiens, K562, 48 h; for GI50: read-out: K-562 GI50, SRB assay, 48 hours exposure; for CC50: read-out: K-562 LC50, SRB assay, 48 hours exposure; for K-562 TGI: SRB assay, 48 hours exposure
Procedure, shortened: (§1)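 Read-out is sulforhodamine B protein stain (OD 490 nm) after cold TCA fixation, following 48 h continuous exposure to samples spanning 10 to 10^−8 μg/ml.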

[2] = system: A-549; assay: Inhibition of cells growth by colorimetric (SRB) assay, A-549; conditions: for GI50 / CC50: Homo sapiens, A549, 48 h
Procedure, shortened: as §1

[3] = system: SK-MEL-28; assay: Inhibition of cells growth by colorimetric (SRB) assay, SK-MEL-28; conditions: for GI50 / CC50: Homo sapiens, SK-MEL-28, 48 h; for GI50: read-out: MEL-28 GI50, SRB assay, 48 hours exposure; for CC50: read-out: MEL-28 LC50, SRB assay, 48 hours exposure; for MEL-28 TGI: SRB assay, 48 hours exposure
Procedure, shortened: as §1

[4] = system: HT-29; assay: Inhibition of cells growth by colorimetric (SRB) assay, HT-29; conditions: for GI50 / CC50: Homo sapiens, HT-29, 48 h
Procedure, shortened: as §1

[5] = system: LoVo; assay: Inhibition of cells growth by colorimetric (SRB) assay, LoVo; conditions: for GI50 / CC50: Homo sapiens, LoVo, 48 h; for GI50: read-out: LOVO GI50, SRB assay, 48 hours exposure; for CC50: read-out: LOVO LC50, SRB assay, 48 hours exposure; for LOVO TGI: SRB assay, 48 hours exposure
Procedure, shortened: as §1

[6] = system: LoVo-Dox; assay: Inhibition of cells growth by colorimetric (SRB) assay, LoVo-Dox; conditions: for GI50 / CC50: Homo sapiens, 48 h; for GI50: read-out: LOVO-DOX GI50, SRB assay, 48 hours exposure; for CC50: read-out: LOVO-DOX LC50, SRB assay, 48 hours exposure; for LOVO-DOX TGI: SRB assay, 48 hours exposure
Procedure, shortened: as §1

[7] = system: DU-145; assay: Inhibition of cells growth by colorimetric (SRB) assay, DU-145; conditions: for GI50 / CC50: Homo sapiens, DU-145, 48 h; for GI50: read-out: DU-145 GI50, SRB assay, 48 hours exposure; for CC50: read-out: DU-145 LC50, SRB assay, 48 hours exposure; for DU-145 TGI: SRB assay, 48 hours exposure
Procedure, shortened: as §1

[8] = system: LNCaP; assay: Inhibition of cells growth by colorimetric (SRB) assay, LNCaP; conditions: for GI50 / CC50: Homo sapiens, LNCaP, 48 h; for GI50: read-out: LN-caP GI50, SRB assay, 48 hours exposure; for CC50: read-out: LN-caP LC50, SRB assay, 48 hours exposure; for LN-caP TGI: SRB assay, 48 hours exposure
Procedure, shortened: as §1

[9] = system: SK-BR-3; assay: Inhibition of cells growth by colorimetric (SRB) assay, SK-BR-3; conditions: for GI50 / CC50: Homo sapiens, SK-BR-3, 48 h; for GI50: read-out: SK-BR-3 GI50, SRB assay, 48 hours exposure; for CC50: read-out: SK-BR-3 LC50, SRB assay, 48 hours exposure; for SK-BR-3 TGI: SRB assay, 48 hours exposure
Procedure, shortened: as §1

[10] = system: IGROV-1; assay: Inhibition of cells growth by colorimetric (SRB) assay, IGROV-1; conditions: for GI50 / CC50: Homo sapiens, IGROV-1, 48 h; for GI50: read-out: IGROV GI50, SRB assay, 48 hours exposure; for CC50: read-out: IGROV LC50, SRB assay, 48 hours exposure; for IGROV TGI: SRB assay, 48 hours exposure
Procedure, shortened: as §1

[11] = system: IGROV-ET; assay: Inhibition of cells growth by colorimetric (SRB) assay, IGROV-ET; conditions: for GI50 / CC50: Homo sapiens, 48 h; for GI50: read-out: IGROV-ET GI50, SRB assay, 48 hours exposure; for CC50: read-out: IGROV-ET LC50, SRB assay, 48 hours exposure; for IGROV-ET TGI: SRB assay, 48 hours exposure
Procedure, shortened: as §1

[12] = system: HeLa; assay: Inhibition of cells growth by colorimetric (SRB) assay, HeLa; conditions: for GI50: Homo sapiens, HeLa, 48 h, read-out: HELA GI50, SRB assay, 48 hours exposure; for HELA TGI: SRB assay, 48 hours exposure
Source text: (§2) The finality of these assays is to interrupt the growth of a “in vitro” tumor cell culture by means a continued exhibition of the cells to the sample to be testing.
(§3) This form of the assay employs 96 well cell culture microplates of 9 mm diameter (Faircloth, 1988; Mosmann, 1983). Most of the cell lines are obtained from American Type Culture Collection (ATCC) derived from different human cancer types.
(§4) Cells are maintained in RPMI 1640 10% FBS, supplemented with 0.1 g/l penicillin and 0.1 g/l streptomycin sulphate and then incubated at 37° C., 5% CO2 and 98% humidity. For the experiments, cells were harvested from subconfluent cultures using trypsin and resuspended in fresh medium before plating.
(§5) Cells are seeded in 96 well microtiter plates, at 5×10^3 cells per well in aliquots of 195 μl medium, and they are allowed to attach to the plate surface by growing in drug free medium for 18 hours. Afterward, samples are added in aliquots of 5 μl in a ranging from 10 to 10^−8 μg/ml, dissolved in DMSO/EtOH/PBS (0.5:0.5:99). After 48 hours exposure, the antitumor effect are measured by the SRB methodology: cells are fixed by adding 50 μl of cold 50% (wt/vol) trichloroacetic acid (TCA) and incubating for 60 minutes at 4° C. Plates are washed with deionized water and dried. One hundred μl of SRB solution (0.4% wt/vol in 1% acetic acid) is added to each microtiter well and incubated for 10 minutes at room temperature. Unbound SRB is removed by washing with 1% acetic acid. Plates are air dried and bound stain is solubilized with Tris buffer. Optical densities are read on a automated spectrophotometric plate reader at a single wavelength of 490 nm.
(§6) The values for mean +/−SD of data from triplicate wells are calculated. Some parameters for cellular responses can be calculated: GI=growth inhibition, TGI=total growth inhibition (cytostatic effect) and LC=cell killing (cytotoxic effect).

[13] = system: HeLa-APL; assay: Inhibition of cells growth by colorimetric (SRB) assay, HeLa-APL; conditions: for GI50 / CC50: Homo sapiens, 48 h; for GI50: read-out: HELA-APL GI50, SRB assay, 48 hours exposure; for CC50: read-out: HELA-APL LC50, SRB assay, 48 hours exposure; for HELA-APL TGI: SRB assay, 48 hours exposure
Source text: as §2, §3, §4, §5, §6

[14] = system: PANC-1; assay: Inhibition of cells growth by colorimetric (SRB) assay, PANC-1; conditions: for GI50 / CC50: Homo sapiens, PANC-1, 48 h; for GI50: read-out: PANC-1 GI50, SRB assay, 48 hours exposure; for CC50: read-out: PANC-1 LC50, SRB assay, 48 hours exposure; for PANC-1 TGI: SRB assay, 48 hours exposure
Procedure, shortened: as §1

[15] = read-out: A-549 GI50, SRB assay, 48 hours exposure
[16] = read-out: A-549 LC50, SRB assay, 48 hours exposure
[17] = read-out: HT-29 GI50, SRB assay, 48 hours exposure
[18] = read-out: HT-29 LC50, SRB assay, 48 hours exposure

CSc1nccc(-c2c3cccnc3n3c(N)nccc23)n1.Cl [Compound 68]
GI50 [1]: 2510 nM
CC50 [1]: 29000 nM
K-562 TGI [1]: 1.84E−05
GI50 [2, 15]: 1290 nM
CC50 [2, 16]: 29000 nM
A-549 TGI ([2]; SRB assay, 48 hours exposure): 5.10E−06
GI50 [3]: 1080 nM
CC50 [3]: 14400 nM
MEL-28 TGI [3]: 4.49E−06
GI50 [4, 17]: 1140 nM
CC50 [4, 18]: 29000 nM
HT-29 TGI ([4]; SRB assay, 48 hours exposure): 6.93E−06
GI50 [5]: 539 nM
CC50 [5]: 2590 nM
LOVO TGI [5]: 1.18E−06
GI50 [6]: 1150 nM
CC50 [6]: 29000 nM
LOVO-DOX TGI [6]: 2.43E−06
GI50 [7]: 365 nM
CC50 [7]: 2900 nM
DU-145 TGI [7]: 1.03E−06
GI50 [8]: 310 nM
CC50 [8]: 4410 nM
LN-caP TGI [8]: 1.05E−06
GI50 [9]: 641 nM
CC50 [9]: 16100 nM
SK-BR-3 TGI [9]: 3.42E−06
GI50 [10]: 1720 nM
CC50 [10]: 29000 nM
IGROV TGI [10]: 1.27E−05
GI50 [11]: 2820 nM
CC50 [11]: 29000 nM
IGROV-ET TGI [11]: 1.44E−05
GI50 [12]: 10 nM
HELA TGI [12]: 3.19E−08
GI50 [13]: 10.3 nM
CC50 [13]: 655 nM
HELA-APL TGI [13]: 5.68E−08
GI50 [14]: 588 nM
CC50 [14]: 29000 nM
PANC-1 TGI [14]: 1.15E−05

CSc1nccc(-c2c3cccnc3n3c(NC(C)=O)nccc23)n1 [Compound 69]
GI50 [1]: 12800 nM
CC50 [1]: 28500 nM
K-562 TGI [1]: 2.85E−05
GI50 [2, 15]: 517 nM
CC50 [2, 16]: 2750 nM
GI50 ([2]; read-out: GI50 A-549, SRB assay, 48 hours exposure): 5710 nM
CC50 ([2]; read-out: LC50 A-549, SRB assay, 48 hours exposure): 28600 nM
A-549 TGI ([2]; SRB assay, 48 hours exposure): 1.19E−06
TGI A-549 ([2]; SRB assay, 48 hours exposure): 2.29E−05
GI50 [3]: 2190 nM
CC50 [3]: 16400 nM
MEL-28 TGI [3]: 6.51E−06
GI50 ([4]; read-out: GI50 HT-29, SRB assay, 48 hours exposure): 14300 nM
GI50 [4, 17]: 887 nM
CC50 [4, 18]: 28500 nM
CC50 ([4]; read-out: LC50 HT-29, SRB assay, 48 hours exposure): 28600 nM
HT-29 TGI ([4]; SRB assay, 48 hours exposure): 6.51E−06
TGI HT-29 ([4]; SRB assay, 48 hours exposure): 2.86E−05
GI50 [5]: 1220 nM
CC50 [5]: 28500 nM
LOVO TGI [5]: 7.28E−06
GI50 [6]: 2040 nM
CC50 [6]: 28500 nM
LOVO-DOX TGI [6]: 9.79E−06
GI50 [7]: 985 nM
CC50 [7]: 23700 nM
DU-145 TGI [7]: 4.59E−06
GI50 [8]: 1080 nM
CC50 [8]: 28500 nM
LN-caP TGI [8]: 4.77E−06
GI50 [9]: 1230 nM
CC50 [9]: 24800 nM
SK-BR-3 TGI [9]: 6.25E−06
GI50 [10]: 2130 nM
CC50 [10]: 28500 nM
IGROV TGI [10]: 8.53E−06
GI50 [11]: 7310 nM
CC50 [11]: 28500 nM
IGROV-ET TGI [11]: 2.18E−05
GI50 [12]: 7.16 nM
HELA TGI [12]: 3.60E−08
GI50 [13]: 5.94 nM
CC50 [13]: 380 nM
HELA-APL TGI [13]: 2.45E−08
GI50 [14]: 4990 nM
CC50 [14]: 28500 nM
PANC-1 TGI [14]: 1.91E−05
